Laboratory results: publication PMC3401594 (International Journal of Pharmaceutics, 2009)
“And” between values parts separate entries of the source, which are not always exact repeats. Equal values may be shown once. Read-outs that look alike come from different tables or passages of the source. Marks after values point to notes of the source that are not given here.

Legend:
[1] = tested on: P-gp (mdr1a/b) influence on antinociception; design: species or system mice; conditions: mouse, in vivo; for Influence of P-gp ablation on antinociceptive activity: sc
[2] = ref Casy and Parfitt, 1986; cited from earlier work
[3] = target: T1, recombinant human P-gp (Homo sapiens, UniProt P08183); conditions: cited from earlier work
[4] = target: T1, recombinant human P-gp
[5] = 20 mg/kg, for 45 min in wild type mice; ref Thompson et al., 2000; cited from earlier work
[6] = target: μ receptor; conditions: read-out: Ki at μ receptor, as determined by DEC, NIDA, ref DEC; cited from earlier work
[7] = tail-flick, hotplate and paraphenylquinone assays; ref DEC, NIDA; cited from earlier work
[8] = mouse, in vivo
[9] = in vivo; cited from earlier work

T1 sequence (P08183 whole entry): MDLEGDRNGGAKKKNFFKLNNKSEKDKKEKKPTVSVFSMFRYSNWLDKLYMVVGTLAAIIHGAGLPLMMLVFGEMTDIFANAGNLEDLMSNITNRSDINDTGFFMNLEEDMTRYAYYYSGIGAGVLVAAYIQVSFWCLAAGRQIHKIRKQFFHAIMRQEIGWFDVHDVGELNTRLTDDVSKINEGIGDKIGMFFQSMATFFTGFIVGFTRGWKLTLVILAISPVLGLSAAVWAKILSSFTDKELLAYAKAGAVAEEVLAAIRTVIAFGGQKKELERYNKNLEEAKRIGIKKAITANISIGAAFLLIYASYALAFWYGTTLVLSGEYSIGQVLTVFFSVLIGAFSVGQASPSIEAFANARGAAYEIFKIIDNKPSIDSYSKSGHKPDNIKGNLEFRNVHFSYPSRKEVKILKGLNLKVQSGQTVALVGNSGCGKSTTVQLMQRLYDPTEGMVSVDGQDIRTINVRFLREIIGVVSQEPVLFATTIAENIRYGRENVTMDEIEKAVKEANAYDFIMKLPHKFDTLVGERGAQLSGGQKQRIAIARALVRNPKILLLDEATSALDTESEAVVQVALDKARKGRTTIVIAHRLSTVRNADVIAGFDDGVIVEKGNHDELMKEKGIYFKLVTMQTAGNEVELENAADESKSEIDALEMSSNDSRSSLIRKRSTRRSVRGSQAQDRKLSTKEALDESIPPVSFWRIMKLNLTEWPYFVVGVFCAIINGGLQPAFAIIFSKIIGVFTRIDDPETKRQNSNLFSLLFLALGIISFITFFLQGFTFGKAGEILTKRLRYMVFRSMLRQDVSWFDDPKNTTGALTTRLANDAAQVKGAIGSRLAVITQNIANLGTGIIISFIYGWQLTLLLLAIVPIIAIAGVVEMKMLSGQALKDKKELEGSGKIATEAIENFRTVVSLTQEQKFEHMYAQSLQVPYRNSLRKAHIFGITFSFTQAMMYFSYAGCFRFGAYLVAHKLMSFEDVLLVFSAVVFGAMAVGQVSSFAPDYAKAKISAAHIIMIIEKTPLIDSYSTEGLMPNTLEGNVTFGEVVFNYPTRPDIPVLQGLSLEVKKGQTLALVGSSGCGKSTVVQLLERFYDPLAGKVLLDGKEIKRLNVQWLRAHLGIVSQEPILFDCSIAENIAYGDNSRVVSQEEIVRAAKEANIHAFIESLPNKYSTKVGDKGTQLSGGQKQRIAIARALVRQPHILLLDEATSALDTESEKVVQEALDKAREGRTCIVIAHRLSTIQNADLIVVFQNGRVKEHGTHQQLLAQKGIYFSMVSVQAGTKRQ

CCOC(=O)C1(c2ccccc2)CCN(C)CC1 [Meperidine]
AUEC ratio mdr1a/b (−/−)/mdr1a/b (+/+) [1]: 1.14 ± 0.2
mdr1a/b (+/+) (AUEC) [1]: 6752.14 ± 917.94 %MPE × min
mdr1a/b (−/−) (AUEC) [1]: 7678.40 ± 851.59 %MPE × min
Influence of P-gp ablation on antinociceptive activity [1]: no significant influence
Intravenous to intraventricular ED10 ratio [2]: 8.5
Fold stimulation of basal P-gp-ATPase activity [3]: 1.51 ± 0.29 fold

COc1ccc2c3c1O[C@H]1[C@@H](O)C=C[C@H]4[C@@H](C2)N(C)CC[C@@]341 [Codeine]
Fold stimulation of basal P-gp-ATPase activity ([4]; human): 1.36 ± 0.07 ^b fold
Rate of ATP consumption versus non-treated control (significance) ([4]; human): significantly different (p < 0.05)

CN1CC[C@]23c4c5ccc(O)c4O[C@H]2[C@@H](O)C=C[C@H]3[C@H]1C5 [Morphine]
%MPE reached [5]: ~ 95 %MPE

COc1ccc2c3c1O[C@H]1CC=C[C@H]4[C@@H](C2)N(C)CC[C@]314 [6-Desoxycodeine]
P-gp affinity status from P-gp ATPase assay [4]: not to be P-gp substrates
Fold stimulation of basal P-gp-ATPase activity ([4]; human): 1.31 ± 0.15 fold

CN1CC[C@]23c4c5ccc(O)c4O[C@H]2CC=C[C@H]3[C@H]1C5 [6-Desoxymorphine]
P-gp affinity status from P-gp ATPase assay [4]: not to be P-gp substrates
Fold stimulation of basal P-gp-ATPase activity ([4]; human): 1.01 ± 0.11 fold
Ki [6]: 2.9 nM
AUEC ratio mdr1a/b (−/−)/mdr1a/b (+/+) [1]: 1.14 ± 1.08 and 1.17 ± 0.17
Maximum %MPE reached [1]: 100%
Influence of P-gp ablation on antinociceptive activity [1]: no significant influence
Potency relative to morphine (times as potent) [7]: ~ 10 times
Signs of toxicity [8]: no apparent toxicity

C=CCN1CC[C@]23c4c5ccc(O)c4O[C@H]2C(=O)CC[C@@]3(O)[C@H]1C5 [Naloxone]
Fold stimulation of basal P-gp-ATPase activity ([4]; human): 1.25 ± 0.11 fold
Stimulation of P-gp ATPase activity (significance) ([4]; human): did not significantly (p > 0.05) stimulate

CN1CC[C@]23c4c5ccc(O)c4O[C@H]2C(=O)CC[C@@]3(O)[C@H]1C5 [Oxymorphone]
Potency relative to morphine (times as potent) [9]: approximately 10 times
P-gp affinity status from P-gp ATPase assay [4]: not to be P-gp substrates
Fold stimulation of basal P-gp-ATPase activity ([4]; human): 1.12 ± 0.12 fold
Stimulation of P-gp ATPase activity (significance) ([4]; human): did not significantly (p > 0.05) stimulate
